This is an account of results in publication PMC5352556 (Journal of chemical neuroanatomy, 2016).

As a reminder, the Km is the concentration of substrate that gives half-maximal velocity.

Molecules are shown by their SMILES. Counter-ions that a name gives are not always drawn.

What all share (type): cell-based
The test system of one assay is rat Pmat (rPmat). The experiment in a line: Concentration dependence of rPmat-mediated substrate uptake in MDCK/rPmat cells. The note with it: rPmat-mediated uptake, MDCK/rPmat minus mock, 3 min, 37 °C, pH 7.4.
The target in a further assay is T1, human PMAT (hPMAT) (Homo sapiens, UniProt Q7RTT9).
T1 sequence (Q7RTT9 1-530): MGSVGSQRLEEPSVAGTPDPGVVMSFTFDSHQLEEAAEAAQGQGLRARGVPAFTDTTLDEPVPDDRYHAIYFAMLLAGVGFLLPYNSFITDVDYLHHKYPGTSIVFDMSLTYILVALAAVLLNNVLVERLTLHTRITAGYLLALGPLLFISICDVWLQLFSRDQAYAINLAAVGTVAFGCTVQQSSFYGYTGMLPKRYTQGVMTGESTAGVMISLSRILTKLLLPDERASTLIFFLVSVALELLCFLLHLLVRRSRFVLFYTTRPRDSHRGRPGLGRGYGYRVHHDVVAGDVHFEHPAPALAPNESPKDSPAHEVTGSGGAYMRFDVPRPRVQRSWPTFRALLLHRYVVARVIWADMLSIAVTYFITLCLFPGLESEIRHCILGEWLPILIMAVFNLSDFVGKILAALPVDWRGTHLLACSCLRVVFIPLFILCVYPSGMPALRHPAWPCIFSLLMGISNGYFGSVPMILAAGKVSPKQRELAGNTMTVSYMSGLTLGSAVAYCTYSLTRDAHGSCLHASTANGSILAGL
The experiment in a line: Concentration dependence of hPMAT-mediated substrate uptake in MDCK/hPMAT cells. As to conditions: hPMAT-mediated uptake, MDCK/hPMAT minus mock, 3 min, 37 °C, pH 7.4.

The target in a further assay is T2, mouse Pmat (mPmat) (Mus musculus, UniProt Q8R139).
T2 sequence (Q8R139 1-528): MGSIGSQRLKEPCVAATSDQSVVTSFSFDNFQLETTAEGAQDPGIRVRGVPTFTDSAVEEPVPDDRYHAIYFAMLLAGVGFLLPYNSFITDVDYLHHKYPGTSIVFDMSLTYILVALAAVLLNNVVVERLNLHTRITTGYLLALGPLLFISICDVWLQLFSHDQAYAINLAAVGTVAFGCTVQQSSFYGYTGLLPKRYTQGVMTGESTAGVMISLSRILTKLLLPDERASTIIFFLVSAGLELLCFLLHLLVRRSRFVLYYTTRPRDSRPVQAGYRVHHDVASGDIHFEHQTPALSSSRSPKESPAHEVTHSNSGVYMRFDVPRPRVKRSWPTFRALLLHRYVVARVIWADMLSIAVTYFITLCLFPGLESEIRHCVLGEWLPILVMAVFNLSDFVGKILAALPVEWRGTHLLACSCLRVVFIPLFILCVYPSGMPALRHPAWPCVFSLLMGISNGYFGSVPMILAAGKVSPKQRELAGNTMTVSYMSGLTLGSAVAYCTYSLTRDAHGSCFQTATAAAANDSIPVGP
As to conditions: mPmat-mediated uptake, Flp293/mPmat minus mock, 2 min, 37 °C, pH 7.4.

Turning to `[3H]c1c([3H])c(CCN)c([3H])c(O)c1O` [Dopamine, 3,4-dihydroxy-[2,5,6-^3H]phenylethylamine], the Km in the assay with rat Pmat (rPmat) stood at 271 ± 50 µM; on human PMAT (hPMAT), 201 ± 34 µM. Also, the Vmax came to 0.750 ± 0.049 nmol/min/mg protein with rat Pmat (rPmat), 0.750 ± 0.049 nmol/min/mg protein in the assay on rat Pmat (rPmat) (listed as dopamine) and 1.43 ± 0.08 nmol/min/mg protein on human PMAT (hPMAT).
For the compound `C[n+]1ccc(-c2ccccc2)cc1` [MPP^+, 1-methyl-4-phenylpyridinium], the Km in the assay with rat Pmat (rPmat) worked out at 70.2 ± 12.3 µM; at human PMAT (hPMAT), 33.7 ± 6 µM; on mouse Pmat (mPmat), 49.5 ± 0.1 µM. Also, the results for the Vmax in the assay on rat Pmat (rPmat), at human PMAT (hPMAT) and on mouse Pmat (mPmat) were 0.210 ± 0.011 nmol/min/mg protein, 0.490 ± 0.190 nmol/min/mg protein and 1.59 ± 0.068 nmol/min/mg protein, respectively.
Consider `NCCc1c[nH]c2ccc(O)cc12` [Serotonin, 5-hydroxy-[1,2-^3H]tryptamine creatinine sulfate], for which, in the assay on rat Pmat (rPmat), the Km came out at 82.9 ± 21.2 µM and the Vmax is reported as 1.26 ± 0.12 nmol/min/mg protein. Besides, the Km at human PMAT (hPMAT) is 116 ± 27 µM.
